Test results published in patent publication US6992102B2, “Bicyclic modulators of androgen receptor function” (Bristol-Myers Squibb Company, priority 2001, dated 2006).

Biological target: endogenous glucocorticoid receptor (Homo sapiens, UniProt P04150)
Sequence (P04150 whole entry): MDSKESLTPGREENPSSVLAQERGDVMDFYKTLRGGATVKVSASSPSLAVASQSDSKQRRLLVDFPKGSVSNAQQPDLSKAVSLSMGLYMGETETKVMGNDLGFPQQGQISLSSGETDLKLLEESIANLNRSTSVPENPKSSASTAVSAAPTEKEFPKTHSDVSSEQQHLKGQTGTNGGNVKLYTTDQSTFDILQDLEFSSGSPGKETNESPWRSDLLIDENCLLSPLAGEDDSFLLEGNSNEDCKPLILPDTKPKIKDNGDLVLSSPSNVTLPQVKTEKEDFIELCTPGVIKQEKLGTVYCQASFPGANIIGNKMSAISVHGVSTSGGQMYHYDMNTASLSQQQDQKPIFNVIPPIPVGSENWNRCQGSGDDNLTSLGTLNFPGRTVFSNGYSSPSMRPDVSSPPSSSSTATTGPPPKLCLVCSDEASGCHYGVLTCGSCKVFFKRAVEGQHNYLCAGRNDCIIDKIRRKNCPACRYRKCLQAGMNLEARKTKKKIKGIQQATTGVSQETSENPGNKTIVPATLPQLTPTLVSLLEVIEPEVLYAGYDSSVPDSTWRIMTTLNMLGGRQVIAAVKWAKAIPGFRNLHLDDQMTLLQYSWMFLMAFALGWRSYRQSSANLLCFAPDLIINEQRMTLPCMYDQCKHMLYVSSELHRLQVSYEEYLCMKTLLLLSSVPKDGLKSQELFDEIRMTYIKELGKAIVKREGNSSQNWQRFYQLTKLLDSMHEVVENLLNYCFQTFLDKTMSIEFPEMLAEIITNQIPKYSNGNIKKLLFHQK
Settings: concentration ≦10 µM; A549 cells stimulated with 10 ng/ml PMA; versus buffer control
Procedure: A549 cells, which contain endogenous glucocorticoid receptor, were stably transfected with an AP-1 DNA binding site attached to the luciferase gene. […] Cells are plated the day before the assay at approximately 40000 cells/well. […] Activity is measured by analysis in a luminometer as compared to control experiments treated with buffer or dexamethasome.
With `C[C@@H]1C[C@H]2[C@@H]3CCC4=CC(=O)C=C[C@]4(C)[C@@]3(F)[C@@H](O)C[C@]2(C)[C@@]1(O)C(=O)CO` [dexamethasone] the “% inhibition of the reporter system (suppresses activity)” value was 65%.

Biological target: T1, AR (Rattus norvegicus, UniProt P15207)
T1 sequence (P15207 1-902): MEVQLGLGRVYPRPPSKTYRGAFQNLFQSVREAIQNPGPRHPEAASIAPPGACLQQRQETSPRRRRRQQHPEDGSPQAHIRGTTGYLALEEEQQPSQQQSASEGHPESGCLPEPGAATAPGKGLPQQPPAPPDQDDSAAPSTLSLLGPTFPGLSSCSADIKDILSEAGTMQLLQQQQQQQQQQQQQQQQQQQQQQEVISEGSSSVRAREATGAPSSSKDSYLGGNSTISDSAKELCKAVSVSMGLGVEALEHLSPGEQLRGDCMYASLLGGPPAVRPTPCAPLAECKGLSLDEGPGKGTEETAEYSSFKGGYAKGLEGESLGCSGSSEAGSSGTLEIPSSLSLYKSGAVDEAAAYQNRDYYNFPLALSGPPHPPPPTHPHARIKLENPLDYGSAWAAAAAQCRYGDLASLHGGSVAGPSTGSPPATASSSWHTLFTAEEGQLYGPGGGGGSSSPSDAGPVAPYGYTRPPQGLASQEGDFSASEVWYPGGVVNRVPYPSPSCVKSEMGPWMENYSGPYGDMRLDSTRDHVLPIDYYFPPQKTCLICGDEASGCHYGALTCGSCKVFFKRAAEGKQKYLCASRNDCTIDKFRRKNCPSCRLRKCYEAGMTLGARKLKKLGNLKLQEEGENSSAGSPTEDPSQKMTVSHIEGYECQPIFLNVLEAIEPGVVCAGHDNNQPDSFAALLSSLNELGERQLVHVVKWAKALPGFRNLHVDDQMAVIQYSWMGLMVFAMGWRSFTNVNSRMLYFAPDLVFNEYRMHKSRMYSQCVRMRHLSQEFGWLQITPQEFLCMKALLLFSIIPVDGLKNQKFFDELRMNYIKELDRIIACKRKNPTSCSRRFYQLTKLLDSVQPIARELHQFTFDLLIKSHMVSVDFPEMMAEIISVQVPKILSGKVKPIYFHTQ
Settings: immature castrated rats
Excerpt: The activity of compounds of the present invention as AR agonists was investigated in an immature male rat model, a recognized test of anabolic effects in muscle and sustaining effects in sex organs for a given compound, as described in L. G. Hershberger et al., Proc. Soc. […] Biol. Med., 83, 175 (1953); B. L. Beyler et al, “Methods for evaluating anabolic and catabolic agents in laboratory animals”, J. Amer. Med. Women's Ass., 23, 708 (1968); H. Fukuda et al., “Investigations of the levator ani muscle as an anabolic steroid assay”, Nago Dai. Yak. Ken. Nem. 14, 84 (1966) the disclosures of which are herein incorporated by reference.
The basis of this assay lies in the well-defined action of androgenic agents on the maintenance and growth of muscle tissues and sexual accessory organs in animals and man. […] J. Anat. […] Ital. Biol. Sper. […] II. […] Ital. Biol. Sper. 42, 1600 (1966); A. Boris et al., Steroids 15, 61 (1970). As described above, the effects of androgens on maintenance of male sexual accessory organs, such as the prostate and seminal vesicles, is well described. Castration results in rapid involution and atrophy of the prostate and seminal vesicles. This effect can be reversed by exogenous addition of androgens. […]
For `CCC(=O)O[C@H]1CC[C@H]2[C@@H]3CCC4=CC(=O)CC[C@]4(C)[C@H]3CC[C@]12C` [TP, testosterone propionate], the “EC50 (organ weight increase)” value was roughly 0.03 mg.

Same assay, conditions: organ weight increase, castrated rats
For `CCC(=O)O[C@H]1CC[C@H]2[C@@H]3CCC4=CC(=O)CC[C@]4(C)[C@H]3CC[C@]12C` [TP, testosterone propionate], the “potency relative to free T” value was 10–30 fold.

Tested on: not given
Settings: not given
With `N#Cc1ccc(N2CC3[C@@H](O)CCN3C2=O)c2ccccc12` (stereo partly shown) the melting point was 226 to 228 °C.
In the case of `CC(C)(C)OC(=O)N1CCN2C(=O)N(c3ccc(C#N)c4ccccc34)C(=O)C2C1` (stereo not shown), the melting point is reported as 222 to 224 °C.
Molecule `C[C@@]12C(=O)N(c3ccc(C#N)c4ccccc34)C(=O)N1CC[C@@H]2O` has a melting point of 234 to 235 °C.
In the case of `N#Cc1ccc(N2C[C@@H]3[C@H](O)CCN3C2=O)c2ccccc12`, the melting point is reported as 226 to 228 °C.
For `N#Cc1ccc(N2C(=O)[C@@H]3[C@H](O)CCCN3C2=O)c2ccccc12` (racemic), the melting point was 243 °C.
For `O=C1[C@H]2[C@@H](O)CCN2C(=O)N1c1ccc(Br)c2ccccc12` (racemic), the melting point was 204 to 206 °C.
For `C[C@]12C(=O)N(c3ccc(C#N)c4ccccc34)C(=O)N1CC[C@H]2O`, the melting point was 232 to 234 °C.
Work on `CO[C@H]1CCN2C(=O)N(c3ccc(C#N)c4ccccc34)C(=O)[C@@H]12` (racemic) yielded a melting point of 185 to 186 °C.
In the case of `O=C1C2CCCCN2C(=O)N1c1ccc([N+](=O)[O-])c2ccccc12` (racemic), the melting point is reported as 190 to 192 °C.
For `N#Cc1ccc(N2C(=O)[C@@H]3[C@H](O)[C@H](O)CN3C2=O)c2ccccc12` (stereo in doubt), the melting point was 225 °C.
`N#Cc1ccc(N2C(=O)C3=CCCN3C2=O)c2ccccc12` showed a melting point of 230 to 232 °C.
Work on `N#Cc1ccc(N2C(=O)[C@H]3[C@@H](O)[C@@H](O)CN3C2=O)c2ccccc12` (stereo in doubt) yielded a melting point of 246 °C.
In the case of `CC(=O)O[C@@H]1CCN2C(=O)N(c3ccc(C#N)c4ccccc34)C(=O)[C@H]12` (racemic), the melting point is reported as 105 °C.
With `Cl.N#Cc1ccc(N2C(=O)C3CNCCN3C2=O)c2ccccc12` (racemic) the melting point was 200 °C.
With `CS(=O)(=O)N1CCN2C(=O)N(c3ccc(C#N)c4ccccc34)C(=O)C2C1` (racemic) the melting point was 207 to 216 °C.
Molecule `CC(C)(C)[C@H]1N(c2ccc(C#N)c3ccccc23)C(=O)[C@@H]2C[C@@H](O)CN21` has a melting point of 155 to 157 °C.
`O=C1C2C[C@@H](OCc3ccccc3)CN2C(=O)N1c1ccc([N+](=O)[O-])c2ccccc12` (stereo partly shown) gave a melting point of 120 to 122 °C.
Molecule `N#Cc1ccc(N2C(=O)[C@@H]3[C@H](O)CCN3C2=S)c2ccccc12` has a melting point of 215 to 216 °C.
`N#Cc1ccc(N2C(=O)[C@H]3[C@@H](O)CCCN3C2=O)c2ccccc12` gave a melting point of 244 °C.
